Source: patent US12630785B2, “Liquid fabric care compositions comprising capsules” (The Procter & Gamble Company, priority 2020, dated 2026)

Legend:
[1] = Capsule perfume leakage in liquid fabric enhancer (LFE), headspace SPME GC/MS; format: physicochemical
Procedure: The testing of capsule leakage in liquid compositions (e.g., liquid fabric enhancer/“LFE” compositions and/or heavy-duty liquid/“HDL” detergents) is performed as follows. […] The 1 gram aliquot in the 7 ml vial is then mixed on a stirring plate for 24 h at 500 rpm, thereby ensuring that the capsules are broken by the grinding action of the stir bar against the bottom of the 7 ml vial. Optical microscopy can be used to verify that no more intact capsules remain. In case such capsules are found, the step is to repeated for an additional 24 h, or until all or almost all capsules are broken. Then, the formulation containing broken capsules is introduced into GC vials in a similar manner as for step (a). This yields total oil samples. It is to be noted that the capsule sample and the total oil sample are not analyzed on the same day, as there is a need to prepare the total oil sample after the capsule sample has been removed from storage. […] The perfume oil composition formulated herein is representative of the perfume oil composition that is present in the slurry. Then the free oil formulation is introduced into GC vials in a similar manner as for step (a). This yields reference samples, which must be used when analyzing both the capsule sample and the total oil sample. […] Two headspace vials are prepared for each sample. The sealed headspace vials are then allowed to equilibrate. Samples reach equilibrium after 3 hours at room temperature, but can be left to sit longer without detriment or change to the results, up until 24 hours after sealing the headspace vial. After equilibrating, the samples are analyzed by GC/MS. […] The perfume composition is analyzed by fast GC/MS in full scan mode. Ion extraction of the specific mass for each component is obtained. The leakage is calculated as follows, separately for the capsule sample and total oil sample, where “Area” denotes the area under the chromatogram peak corresponding to the PRM of interest: Once calculated for all PRMs for both the total oil sample and the capsule sample, the corrected PRM leakage can be calculated using the following formula: Once the corrected PRM leakage has been calculated for all PRMs, the Average leakage can be found by taking the arithmetic mean of each corrected PRM leakage. […] The resulting products are stored for one week at 35° C. At the end of the storage period, samples of each product composition are analyzed for perfume leakage out of the capsule using headspace analysis. The data is reported as a percentage, determined by comparing the amount of the individual perfume raw materials found in the headspace to the amount originally provided to the capsules.

[2] = Capsule perfume leakage in heavy-duty liquid (HDL) detergent, headspace SPME GC/MS; format: physicochemical
Procedure: The testing of capsule leakage in liquid compositions (e.g., liquid fabric enhancer/“LFE” compositions and/or heavy-duty liquid/“HDL” detergents) is performed as follows. […] The 1 gram aliquot in the 7 ml vial is then mixed on a stirring plate for 24 h at 500 rpm, thereby ensuring that the capsules are broken by the grinding action of the stir bar against the bottom of the 7 ml vial. Optical microscopy can be used to verify that no more intact capsules remain. In case such capsules are found, the step is to repeated for an additional 24 h, or until all or almost all capsules are broken. Then, the formulation containing broken capsules is introduced into GC vials in a similar manner as for step (a). This yields total oil samples. It is to be noted that the capsule sample and the total oil sample are not analyzed on the same day, as there is a need to prepare the total oil sample after the capsule sample has been removed from storage. […] The perfume oil composition formulated herein is representative of the perfume oil composition that is present in the slurry. Then the free oil formulation is introduced into GC vials in a similar manner as for step (a). This yields reference samples, which must be used when analyzing both the capsule sample and the total oil sample. […] Two headspace vials are prepared for each sample. The sealed headspace vials are then allowed to equilibrate. […] After equilibrating, the samples are analyzed by GC/MS. […] The perfume composition is analyzed by fast GC/MS in full scan mode. Ion extraction of the specific mass for each component is obtained. The leakage is calculated as follows, separately for the capsule sample and total oil sample, where “Area” denotes the area under the chromatogram peak corresponding to the PRM of interest: Once calculated for all PRMs for both the total oil sample and the capsule sample, the corrected PRM leakage can be calculated using the following formula: Once the corrected PRM leakage has been calculated for all PRMs, the Average leakage can be found by taking the arithmetic mean of each corrected PRM leakage. […] The resulting products are stored for one week at 35° C. At the end of the storage period, samples of each product composition are analyzed for perfume leakage out of the capsule using headspace analysis. The data is reported as a percentage, determined by comparing the amount of the individual perfume raw materials found in the headspace to the amount originally provided to the capsules.

[3] = PRM of Perfume 1 out of Comparative Example 4-1 capsules (polyacrylate shell), LFE Composition 1, 0.25 wt % perfume
[4] = PRM of Perfume 1 out of Comparative Example 6-1 capsules (no second shell component), LFE Composition 1
[5] = PRM of Perfume 1 out of Comparative Example 10-1 capsules (per EP2500087B1), LFE Composition 1
[6] = PRM of Perfume 1 out of Comparative Example 10-2 capsules (per WO2010013250A2, with IPM), LFE Composition 1
[7] = PRM of Perfume 1 out of Example 2, Sample A capsules, LFE Composition 1 (Ester Quat 1)
[8] = PRM of Perfume 1 out of Example 2, Sample A capsules, LFE Composition 2 (Ester Quat 2)
[9] = PRM of Perfume 1 out of Example 2, Sample A capsules, LFE Composition 3 (Ester Quat 3)
[10] = PRM of Perfume 1 out of Example 4-1 capsules (silica shell), LFE Composition 1, 0.25 wt % perfume
[11] = PRM of Perfume 1 out of Example 6-1 capsules (w/ second shell component), LFE Composition 1
[12] = PRM of Perfume 1 out of Example 10-1 capsules (Sample F, Perfume 1/IPM 40/60), LFE Composition 1
[13] = PRM of Perfume 1 out of Example 10-2 capsules (Sample A), LFE Composition 1
[14] = PRM of Perfume 3 out of Capsule Sample D, LFE Composition 1
[15] = PRM of Perfume 1 out of Comparative Example 5-1 capsules (polyacrylate shell)
[16] = PRM of Perfume 1 out of Comparative example 5-2 capsules (per EP2500087B1)
[17] = PRM of Perfume 1 out of Comparative example 5-3 capsules (per WO2010013250A2)
[18] = PRM of Perfume 1 out of Example 5-1 capsules (silica shell)
[19] = PRM of Perfume 2 out of Capsule Sample C, LFE Composition 1

| Leakage (as %) after 1 week at 35° C. [1, 3] | Leakage (as %) after 1 week at 35° C. [1, 4] | Leakage (as %) after 1 week at 35° C. [1, 5] | Leakage (as %) after 1 week at 35° C. [1, 6] | Leakage (as %) after 1 week at 35° C. [1, 7] | Leakage (as %) after 1 week at 35° C. [1, 8] | Leakage (as %) after 1 week at 35° C. [1, 9] | Leakage (as %) after 1 week at 35° C. [1, 10] | Leakage (as %) after 1 week at 35° C. [1, 11] | Leakage (as %) after 1 week at 35° C. [1, 12] | Leakage (as %) after 1 week at 35° C. [1, 13] | Leakage (as %) after 1 week at 35° C. [1, 14] | Leakage (as %) after 1 week at 35° C. [2, 15] | Leakage (as %) after 1 week at 35° C. [2, 16] | Leakage (as %) after 1 week at 35° C. [2, 17] | Leakage (as %) after 1 week at 35° C. [2, 18] | Leakage (as %) after 1 week at 35° C. [1, 19] | SMILES | further results |
| --- | --- | --- | --- | --- | --- | --- | --- | --- | --- | --- | --- | --- | --- | --- | --- | --- | --- | --- |
| 4% | 5% | 89% | 92% | 1.6% | 0.8% | 1.0% | 8% | 9% | 19% | 9% | 8% | 1% | 105% | 102% | 31% |  | CC(=O)O[C@@H]1C[C@H]2CC[C@]1(C)C2(C)C (racemic) [iso-Bornyl acetate] |  |
|  |  |  |  |  |  |  |  |  |  |  | 5% |  |  |  |  | 4% | CC=CC(=O)C1C(C)C=CCC1(C)C (centres unmarked) [1-(2,6,6-trimethyl-1-cyclohex-3-enyl)but-2-en-1-one] |  |
|  |  |  |  |  |  |  |  |  |  |  | 2% |  |  |  |  | 2% | C=CCCC(=O)C1=CCCC(C)(C)C1 [1-(5,5-dimethyl-1-cyclohexenyl)pent-4-en-1-one] |  |
| 31% | 94% | 94% | 96% | 2.1% | 1.1% | 1.6% | 7% | 8% | 22% | 8% |  | 12% | 104% | 101% | 31% | 12% | CC1=CC(C)C(C=O)CC1 (centres unmarked) [2,4-dimethylcyclohex-3-ene-1-carbaldehyde] |  |
|  |  |  |  |  |  |  |  |  |  |  | 6% |  |  |  |  |  | CC(=O)C(C)=CC1C(C)=CCCC1(C)C (centres unmarked) [3-Methyl-4-(2,6,6-trimethyl-2cyclohexen-1-yl)-3-buten-2-one] |  |
|  |  |  |  |  |  |  |  |  |  |  |  |  |  |  |  | 4% | CCC(=O)OC1C=CC2C3CCC(C3)C12 (centres unmarked) [3a,4,5,6,7,7a-hexahydro-1H-4,7-methanoinden-1-yl propanoate] |  |
| 4% | 5% | 91% | 92% | 2.2% | 1.1% | 1.3% | 10% | 11% | 20% | 11% |  | 1% | 105% | 101% | 33% |  | CC(=O)OC1CCCCC1C(C)(C)C (centres unmarked) [(2-tert-butylcyclohexyl) acetate] |  |
| 3% | 4% | 85% | 91% | 0.1% | 0.1% | 0.7% | 6% | 7% | 15% | 7% |  | 0% | 108% | 100% | 27% |  | CC(=O)OC1CCC(C(C)(C)C)CC1 (centres unmarked) [(4-tert-butylcyclohexyl) acetate] |  |
|  |  |  |  |  |  |  |  |  |  |  | 9% |  |  |  |  |  | C=CCOC(=O)CCCCC [Allyl caproate] |  |
|  |  |  |  |  |  |  |  |  |  |  |  |  |  |  |  |  | CC(=O)/C=C/C1C(C)=CCCC1(C)C (stereo not drawn) [Alpha-ionone] | Leakage (as %) after 1 week at 35° C. ([1]; PRM of Perfume 4 out of Comparative Example 9-1 capsules (per EP3078415A), LFE Composition 1): 58%; Leakage (as %) after 1 week at 35° C. ([1]; PRM of Perfume 4 out of Comparative Example 9-2 capsules (per EP3078415A, additional TEOS), LFE Composition 1): 69%; Leakage (as %) after 1 week at 35° C. ([1]; PRM of Perfume 4 out of Example 9-1 capsules (Sample E), LFE Composition 1): 15% |
|  |  |  |  |  |  |  |  |  |  |  | 4% |  |  |  |  |  | CC(C)=CCCC(C)CCO (centres unmarked) [Citronellol] |  |
|  |  |  |  |  |  |  |  |  |  |  |  |  |  |  |  | 4% | c1ccc(Oc2ccccc2)cc1 [Diphenyl oxide] |  |
